From ChEMBL document CHEMBL3885881, “DrugMatrix”

Organism: Rattus norvegicus
Assay: DrugMatrix - Regimen: Daily Repeat
Assay type: toxicity, organism-based, Sprague-Dawley
Design: regimen Daily Repeat, gender Male, age 6-8 weeks
Settings: in vivo, po, route oral GAVAGE, […]; for ABSOLUTE BASOPHIL / BASOPHIL / NUCLEATED RED BLOOD CELLS / ABSOLUTE EOSINOPHIL / ABSOLUTE LYMPHOCYTE / ABSOLUTE MONOCYTE / ABSOLUTE SEGMENTED NEUTROPHIL / EOSINOPHIL / ERYTHROCYTE COUNT / HEMATOCRIT / LEUKOCYTE COUNT / MEAN CORPUSCULAR HEMOGLOBIN / MEAN CORPUSCULAR HEMOGLOBIN CONCENTRATION / MEAN CORPUSCULAR VOLUME / MONOCYTE / NEUTROPHIL / PLATELET COUNT: tissue Blood; for TOTAL BILIRUBIN / ALANINE AMINOTRANSFERASE / ALBUMIN / ALKALINE PHOSPHATASE / ASPARTATE AMINOTRANSFERASE / BLOOD UREA NITROGEN / CHLORIDE / CHOLESTEROL / CREATINE PHOSPHOKINASE / CREATININE / GLUCOSE / LACTATE DEHYDROGENASE / LIPASE / PHOSPHORUS / POTASSIUM / URIC ACID: tissue Plasma
[1] = 0 mg/kg, 72 h, dose level Control, time 3 day
[2] = 0 mg/kg, 120 h, dose level Control, time 5 day
[3] = 1 mg/kg, 72 h, dose level Low, time 3 day
[4] = 1 mg/kg, 120 h, dose level Low, time 5 day
[5] = 150 mg/kg, 72 h, dose level M1, time 3 day
[6] = 300 mg/kg, 72 h, dose level High, time 3 day
[7] = 300 mg/kg, 120 h, dose level High, time 5 day

C[C@@H]1C[C@H]2[C@@H]3CCC4=CC(=O)C=C[C@]4(C)[C@@]3(F)[C@@H](O)C[C@]2(C)[C@@]1(O)C(=O)CO [DEXAMETHASONE]
ABSOLUTE BASOPHIL [1]: 0 CELLS/uL | BASOPHIL [1]: 0% | NUCLEATED RED BLOOD CELLS [1]: 0 /100WBC | TOTAL BILIRUBIN [1]: 0.2 mg/dL | ABSOLUTE BASOPHIL [2]: 0 CELLS/uL | BASOPHIL [2]: 0% | ABSOLUTE BASOPHIL [3]: 0 CELLS/uL | ABSOLUTE EOSINOPHIL [3]: 0 CELLS/uL | ABSOLUTE LYMPHOCYTE [3]: 386.33 CELLS/uL | ABSOLUTE MONOCYTE [3]: 54.33 CELLS/uL | ABSOLUTE SEGMENTED NEUTROPHIL [3]: 12226 CELLS/uL | BASOPHIL [3]: 0% | EOSINOPHIL [3]: 0% | ERYTHROCYTE COUNT [3]: 4.89 x10E6/uL | HEMATOCRIT [3]: 30.93% | LEUKOCYTE COUNT [3]: 12.67 x10E3/uL | MEAN CORPUSCULAR HEMOGLOBIN [3]: 25.53 pg | MEAN CORPUSCULAR HEMOGLOBIN CONCENTRATION [3]: 40.3 G/DL | MEAN CORPUSCULAR VOLUME [3]: 63.33 fL | MONOCYTE [3]: 0.33% | NEUTROPHIL [3]: 96% | NUCLEATED RED BLOOD CELLS [3]: 1 /100WBC | PLATELET COUNT [3]: 1088 x10E3/uL | ALANINE AMINOTRANSFERASE [3]: 118.33 u/L | ALBUMIN [3]: 4.1 G/DL | ALKALINE PHOSPHATASE [3]: 632 u/L | ASPARTATE AMINOTRANSFERASE [3]: 203 u/L | BLOOD UREA NITROGEN [3]: 28.33 mg/dL | CHLORIDE [3]: 95 MEQ/L | CHOLESTEROL [3]: 76.33 mg/dL | CREATINE PHOSPHOKINASE [3]: 789 u/L | CREATININE [3]: 0.16 mg/dL | GLUCOSE [3]: 441 mg/dL | LACTATE DEHYDROGENASE [3]: 205.67 u/L | LIPASE [3]: 45.67 u/L | PHOSPHORUS [3]: 10.57 mg/dL | POTASSIUM [3]: 5.98 MEQ/L | TOTAL BILIRUBIN [3]: 0.33 mg/dL | URIC ACID [3]: 1.2 mg/dL | ABSOLUTE BASOPHIL [4]: 0 CELLS/uL | ABSOLUTE EOSINOPHIL [4]: 0 CELLS/uL | ABSOLUTE LYMPHOCYTE [4]: 716 CELLS/uL | ABSOLUTE MONOCYTE [4]: 233 CELLS/uL | ABSOLUTE SEGMENTED NEUTROPHIL [4]: 18184.33 CELLS/uL | BASOPHIL [4]: 0% | EOSINOPHIL [4]: 0% | ERYTHROCYTE COUNT [4]: 3.43 x10E6/uL | HEMATOCRIT [4]: 25.35% | LEUKOCYTE COUNT [4]: 19.13 x10E3/uL | MEAN CORPUSCULAR HEMOGLOBIN [4]: 24.9 pg | MEAN CORPUSCULAR HEMOGLOBIN CONCENTRATION [4]: 40.75 G/DL | MEAN CORPUSCULAR VOLUME [4]: 59.67 fL | MONOCYTE [4]: 1.33% | NEUTROPHIL [4]: 94% | NUCLEATED RED BLOOD CELLS [4]: 3.33 /100WBC | PLATELET COUNT [4]: 832.67 x10E3/uL | ALANINE AMINOTRANSFERASE [4]: 247 u/L | ALBUMIN [4]: 3.87 G/DL | ALKALINE PHOSPHATASE [4]: 684.67 u/L | ASPARTATE AMINOTRANSFERASE [4]: 267.67 u/L | BLOOD UREA NITROGEN [4]: 20 mg/dL | CHLORIDE [4]: 95 MEQ/L | CHOLESTEROL [4]: 149.67 mg/dL | CREATINE PHOSPHOKINASE [4]: 312.33 u/L | CREATININE [4]: 0.11 mg/dL | GLUCOSE [4]: 438.67 mg/dL | LACTATE DEHYDROGENASE [4]: 287.33 u/L | LIPASE [4]: 21.67 u/L | PHOSPHORUS [4]: 9.83 mg/dL | POTASSIUM [4]: 5.94 MEQ/L | TOTAL BILIRUBIN [4]: 0.25 mg/dL | URIC ACID [4]: 1.43 mg/dL | ABSOLUTE BASOPHIL [5]: 0 CELLS/uL | ABSOLUTE EOSINOPHIL [5]: 0 CELLS/uL | ABSOLUTE LYMPHOCYTE [5]: 851.67 CELLS/uL | ABSOLUTE MONOCYTE [5]: 0 CELLS/uL | ABSOLUTE SEGMENTED NEUTROPHIL [5]: 8381.67 CELLS/uL | BASOPHIL [5]: 0% | EOSINOPHIL [5]: 0% | ERYTHROCYTE COUNT [5]: 3.49 x10E6/uL | HEMATOCRIT [5]: 22.2% | LEUKOCYTE COUNT [5]: 9.23 x10E3/uL | MEAN CORPUSCULAR HEMOGLOBIN [5]: 24.87 pg | MEAN CORPUSCULAR HEMOGLOBIN CONCENTRATION [5]: 39.17 G/DL | MEAN CORPUSCULAR VOLUME [5]: 63.47 fL | MONOCYTE [5]: 0% | NEUTROPHIL [5]: 90.33% | NUCLEATED RED BLOOD CELLS [5]: 0 /100WBC | PLATELET COUNT [5]: 661.67 x10E3/uL | ALANINE AMINOTRANSFERASE [5]: 222.67 u/L | ALBUMIN [5]: 4.03 G/DL | ALKALINE PHOSPHATASE [5]: 224 u/L | ASPARTATE AMINOTRANSFERASE [5]: 153.67 u/L | BLOOD UREA NITROGEN [5]: 40.67 mg/dL | CHLORIDE [5]: 88.33 MEQ/L | CREATINE PHOSPHOKINASE [5]: 139 u/L | CREATININE [5]: 0.28 mg/dL | GLUCOSE [5]: 361.33 mg/dL | LACTATE DEHYDROGENASE [5]: 175.33 u/L | LIPASE [5]: 12 u/L | PHOSPHORUS [5]: 7.7 mg/dL | POTASSIUM [5]: 3.29 MEQ/L | TOTAL BILIRUBIN [5]: 0.27 mg/dL | URIC ACID [5]: 0.6 mg/dL | ABSOLUTE BASOPHIL [6]: 0 CELLS/uL | ABSOLUTE EOSINOPHIL [6]: 101.33 CELLS/uL | ABSOLUTE LYMPHOCYTE [6]: 370.67 CELLS/uL | ABSOLUTE MONOCYTE [6]: 0 CELLS/uL | ABSOLUTE SEGMENTED NEUTROPHIL [6]: 13461.33 CELLS/uL | BASOPHIL [6]: 0% | EOSINOPHIL [6]: 0.67% | ERYTHROCYTE COUNT [6]: 4.56 x10E6/uL | HEMATOCRIT [6]: 29.6% | LEUKOCYTE COUNT [6]: 13.93 x10E3/uL | MEAN CORPUSCULAR HEMOGLOBIN [6]: 26.77 pg | MEAN CORPUSCULAR HEMOGLOBIN CONCENTRATION [6]: 41.3 G/DL | MEAN CORPUSCULAR VOLUME [6]: 64.73 fL | MONOCYTE [6]: 0% | NEUTROPHIL [6]: 96.67% | NUCLEATED RED BLOOD CELLS [6]: 3 /100WBC | PLATELET COUNT [6]: 922.33 x10E3/uL | ALANINE AMINOTRANSFERASE [6]: 191 u/L | ALBUMIN [6]: 3.07 G/DL | ALKALINE PHOSPHATASE [6]: 263 u/L | ASPARTATE AMINOTRANSFERASE [6]: 136.33 u/L | BLOOD UREA NITROGEN [6]: 17 mg/dL | CHLORIDE [6]: 90.33 MEQ/L | CHOLESTEROL [6]: 231 mg/dL | CREATINE PHOSPHOKINASE [6]: 714.67 u/L | CREATININE [6]: 0.13 mg/dL | GLUCOSE [6]: 404.67 mg/dL | LACTATE DEHYDROGENASE [6]: 193.33 u/L | LIPASE [6]: 55 u/L | PHOSPHORUS [6]: 10.2 mg/dL | POTASSIUM [6]: 3.86 MEQ/L | TOTAL BILIRUBIN [6]: 1.1 mg/dL | URIC ACID [6]: 1.1 mg/dL | ABSOLUTE BASOPHIL [7]: 0 CELLS/uL | ABSOLUTE EOSINOPHIL [7]: 0 CELLS/uL | ABSOLUTE LYMPHOCYTE [7]: 332 CELLS/uL | ABSOLUTE MONOCYTE [7]: 0 CELLS/uL | ABSOLUTE SEGMENTED NEUTROPHIL [7]: 16268 CELLS/uL | BASOPHIL [7]: 0% | EOSINOPHIL [7]: 0% | ERYTHROCYTE COUNT [7]: 2.89 x10E6/uL | HEMATOCRIT [7]: 17% | LEUKOCYTE COUNT [7]: 16.6 x10E3/uL | MEAN CORPUSCULAR HEMOGLOBIN [7]: 25.3 pg | MEAN CORPUSCULAR HEMOGLOBIN CONCENTRATION [7]: 42.9 G/DL | MEAN CORPUSCULAR VOLUME [7]: 58.9 fL | MONOCYTE [7]: 0% | NEUTROPHIL [7]: 98% | NUCLEATED RED BLOOD CELLS [7]: 0 /100WBC | PLATELET COUNT [7]: 777 x10E3/uL | ALANINE AMINOTRANSFERASE [7]: 1291 u/L | ALBUMIN [7]: 3.2 G/DL | ALKALINE PHOSPHATASE [7]: 579 u/L | ASPARTATE AMINOTRANSFERASE [7]: 470 u/L | BLOOD UREA NITROGEN [7]: 26 mg/dL | CHLORIDE [7]: 87 MEQ/L | CHOLESTEROL [7]: 201 mg/dL | CREATINE PHOSPHOKINASE [7]: 1188 u/L | CREATININE [7]: 0.1 mg/dL | GLUCOSE [7]: 443 mg/dL | LACTATE DEHYDROGENASE [7]: 750 u/L | LIPASE [7]: 9 u/L | PHOSPHORUS [7]: 10.7 mg/dL | POTASSIUM [7]: 2.68 MEQ/L | TOTAL BILIRUBIN [7]: 0.8 mg/dL | URIC ACID [7]: 0.7 mg/dL
